In brackets after ≈: the same amount, converted by molar mass. A value given as a limit tells only on which side of the number the result lay.

What all share (test): ≥ marks a high value that may be exact or a test limit, other limits are often not marked, values filed in µg/mL are converted to µM
The test system of assay [1] is Staphylococcus aureus.
Assay [2] relates to Enterococcus faecalis.
The test system of assay [3] is Stenotrophomonas maltophilia.
Assay [4] has as its system Serratia marcescens.
Assay [5] relates to Pseudomonas aeruginosa.
For assay [6], the system named is Escherichia coli.
Assay [7] relates to Acinetobacter baumannii.
Assay [8] deals with Klebsiella pneumoniae.
In assay [9] the test system is Enterococcus faecium.
In assay [10] the test system is Staphylococcus aureus MR.
Assay [11] relates to Streptococcus pneumoniae.
Assay [12] has as its system Staphylococcus aureus ATCC 25923.
The subject of assay [13] is Staphylococcus epidermidis RP62A.
Assay [14] has as its system Proteus mirabilis ATCC 25933.
For assay [15], the system named is Klebsiella pneumoniae ATCC 700603.
Assay [16] concerns Candida albicans ATCC 90028.
The test system of assay [17] is Staphylococcus epidermidis RP62A/1.
Assay [18] has as its system Escherichia coli ATCC 25726.
The test system of assay [19] is Pseudomonas aeruginosa ATCC 27853.
Assay [20] concerns Staphylococcus aureus ATCC 29213.
Assay [21] relates to Staphylococcus aureus AB94004.
The test system of assay [22] is Staphylococcus aureus P1381.
In assay [23] the test system is Escherichia coli ATCC 25922.
For assay [24], the system named is Staphylococcus aureus ATCC 6538.
For assay [25], the system named is Staphylococcus aureus P1374.
Assay [26] deals with Pseudomonas aeruginosa ATCC 9027.
Assay [27] relates to Escherichia coli AB94012.
Assay [28] deals with Pseudomonas aeruginosa AB93066.
The test system of assay [29] is Escherichia coli DC2.
Assay [30] deals with Escherichia coli UB1005.
Assay [31] relates to Corynebacterium xerosis C875.
Assay [32] concerns Staphylococcus epidermidis C621.
The subject of assay [33] is Bacillus anthracis.
Assay [34] has as its system Bacillus cereus.

The MIC is the lowest concentration that inhibits growth of the organism. As for `CC[C@H](C)[C@H](NC(=O)[C@@H](NC(=O)[C@H](CCCCN)NC(=O)[C@H](CS)NC(=O)[C@H](CCCCN)NC(=O)[C@H](CCCN=C(N)N)NC(=O)[C@H](CC(C)C)NC(=O)[C@@H](NC(=O)[C@H](CCCCN)NC(=O)[C@@H](NC(=O)[C@H](CC(C)C)NC(=O)[C@H](C)NC(=O)[C@@H](NC(=O)[C@H](Cc1ccccc1)NC(=O)CNC(=O)[C@@H]1CCCN1C(=O)[C@@H]1CCCN1C(=O)[C@@H](NC(=O)[C@H](CCC(=O)O)NC(=O)[C@H](CCCN=C(N)N)NC(=O)[C@H](CC(N)=O)NC(=O)[C@@H](N)CCC(=O)O)C(C)C)[C@@H](C)O)[C@@H](C)CC)[C@@H](C)O)[C@@H](C)CC)C(=O)O` [ENREVPPGFTALIKTLRKCKII], the MIC turned out to be 4.47 µM (≈ 11.3 µg/mL) in [1]; 4.47 µM (≈ 11.3 µg/mL) in [2]; 12.7 µM (≈ 32 µg/mL) in [3]; 8.95 µM (≈ 22.6 µg/mL) in assay [4]; 12.7 µM (≈ 32 µg/mL) in [5]; 3.16 µM (≈ 7.99 µg/mL) in assay [6]. The MIC in assay [7] was 12.7 µM (≈ 32 µg/mL); in [8], 4.47 µM (≈ 11.3 µg/mL); in assay [9] it was 12.7 µM (≈ 32 µg/mL); in [10], 4.47 µM (≈ 11.3 µg/mL); in [11], 4.47 µM (≈ 11.3 µg/mL).
For `CC[C@H](C)[C@H](N)C(=O)N[C@@H](CCCCN)C(=O)N[C@@H](CC(C)C)C(=O)N[C@@H](CO)C(=O)N[C@@H](CCCCN)C(=O)N[C@@H](CCCCN)C(=O)N[C@H](C(=O)N[C@@H](CCCCN)C(=O)N[C@@H](CC(=O)O)C(=O)N[C@@H](CC(N)=O)C(=O)N[C@@H](CC(C)C)C(=O)N[C@@H](CCCCN)C(=O)N[C@@H](CCCCN)C(=O)N[C@H](C(=O)N[C@@H](CC(C)C)C(=O)N[C@@H](CCCCN)C(=O)NCC(=O)N[C@@H](C)C(=O)N[C@H](C(=O)N[C@@H](CCCCN)C(=O)NCC(=O)N[C@@H](C)C(=O)N[C@H](C(=O)N[C@@H](C)C(=O)N[C@H](C(=O)N[C@@H](C)C(=O)N[C@@H](CCCCN)C(=O)N[C@@H](CCSC)C(=O)N[C@H](C(N)=O)C(C)C)C(C)C)[C@@H](C)CC)[C@@H](C)CC)C(C)C)[C@@H](C)O` [IKLSKKTKDNLKKVLKGAIKGAIAVAKMV], the MIC in [12] is 3.1 µM (≈ 9.59 µg/mL); in assay [13], 1.6 µM (≈ 4.95 µg/mL); in [3] it was 1.6 µM (≈ 4.95 µg/mL); in assay [14] it was at least 100 µM; in assay [7] it was 3.1 µM (≈ 9.59 µg/mL); in [15], 6.25 µM (≈ 19.3 µg/mL). Further, the MIC was at least 100 µM in assay [16]; 0.8 µM (≈ 2.48 µg/mL) in [17]; 3.1 µM (≈ 9.59 µg/mL) in [18]; 12.5 µM (≈ 38.7 µg/mL) in assay [19]; 3.1 µM (≈ 9.59 µg/mL) in assay [20].
On to `CC[C@H](C)[C@H](NC(=O)[C@H](CO)NC(=O)[C@H](CCCCN)NC(=O)[C@@H](NC(=O)CNC(=O)[C@H](CCCCN)NC(=O)[C@H](Cc1c[nH]c2ccccc12)NC(=O)[C@H](CC(C)C)NC(=O)[C@H](CCCCN)NC(=O)CNC(=O)[C@H](CC(C)C)NC(=O)[C@@H](NC(=O)[C@@H](N)CCCCN)[C@@H](C)CC)C(C)C)C(=O)N[C@@H](Cc1ccccc1)C(N)=O` [KILGKLWKGVKSIF], for which the MIC amounted to 3.87 µM (≈ 6.25 µg/mL) in [21]; 7.73 µM (≈ 12.5 µg/mL) in [12]; 3.87 µM (≈ 6.25 µg/mL) in assay [22]; 30.9 µM (≈ 50 µg/mL) in assay [23]; 7.73 µM (≈ 12.5 µg/mL) in assay [24]; 3.87 µM (≈ 6.25 µg/mL) in assay [25]. In addition, the MIC in assay [26] stood at 30.9 µM (≈ 50 µg/mL); in [27], 15.5 µM (≈ 25 µg/mL); in assay [28], 30.9 µM (≈ 50 µg/mL).
On to `C[C@H](NC(=O)[C@H](C)NC(=O)[C@H](C)NC(=O)[C@H](Cc1c[nH]c2ccccc12)NC(=O)[C@H](C)NC(=O)[C@H](C)NC(=O)[C@H](C)NC(=O)[C@H](CCCCN)NC(=O)[C@@H](N)CCCCN)C(=O)N[C@@H](C)C(=O)N[C@@H](C)C(=O)N[C@@H](Cc1c[nH]c2ccccc12)C(=O)N[C@@H](C)C(=O)N[C@@H](C)C(=O)N[C@@H](Cc1c[nH]c2ccccc12)C(=O)N[C@@H](C)C(=O)N[C@@H](C)C(=O)N[C@@H](Cc1c[nH]c2ccccc12)C(=O)N[C@@H](C)C(=O)N[C@@H](C)C(=O)N[C@@H](C)C(=O)N[C@@H](CCCCN)C(=O)N[C@@H](CCCCN)C(=O)N[C@@H](CCCCN)C(=O)N[C@@H](CCCCN)C(N)=O` [KKAAAWAAAAAWAAWAAWAAAKKKK], for which the MIC was determined as 8 µM (≈ 20.8 µg/mL) in [29], 16 µM (≈ 41.6 µg/mL) in assay [30], 0.25 µM (≈ 0.649 µg/mL) in [31] and 0.25 µM (≈ 0.649 µg/mL) in [32].
Turning to `CC[C@H](C)[C@H](NC(=O)[C@H](CC(C)C)NC(=O)[C@H](C)NC(=O)[C@@H]1CCCN1C(=O)[C@H](C)NC(=O)[C@@H](NC(=O)[C@H](CCCCN)NC(=O)[C@@H](N)CCCN=C(N)N)C(C)C)C(=O)N[C@@H](CCCCN)C(=O)N[C@@H](CO)C(=O)N[C@@H](Cc1ccccc1)C(=O)N[C@H](C(=O)N[C@@H](Cc1ccccc1)C(=O)N[C@@H](CC(C)C)C(=O)N[C@@H](Cc1ccccc1)C(=O)N[C@@H](CCCCN)C(=O)N[C@@H](Cc1ccccc1)C(=O)N[C@@H](CCCCN)C(=O)N[C@@H](CCCCN)C(=O)NCC(=O)O)C(C)C` [RKVAPALIKSFVFLFKFKKG], the MIC in assay [1] was 55.1 µM (≈ 128 µg/mL); in assay [6], over 110 µM; in [33] it was at least 110 µM; in assay [34] it was at least 110 µM.
For the compound `CC(C)C[C@H](NC(=O)[C@H](C)NC(=O)[C@H](CO)NC(=O)[C@H](Cc1ccccc1)NC(=O)[C@@H](NC(=O)[C@H](CO)NC(=O)[C@@H]1CCCN1C(=O)[C@@H](NC(=O)[C@@H](NC(=O)[C@H](CCCCN)NC(=O)[C@H](CO)NC(=O)[C@H](C)NC(=O)[C@H](CC(C)C)NC(=O)[C@H](CCCCN)NC(=O)[C@H](Cc1ccccc1)NC(=O)[C@@H](NC(=O)[C@H](Cc1ccccc1)NC(=O)[C@@H](N)CO)C(C)C)C(C)C)C(C)C)C(C)C)C(=O)N[C@H](C(=O)N[C@@H](CCCN=C(N)N)C(=O)O)[C@@H](C)O` [SFVFKLASKVVPSVFSALTR], the MIC in [1] is 117 µM; in assay [6], 117 µM; in [33], at least 58.6 µM; in [34], at least 117 µM.

For the origin of these results see DBAASP.
